Patent US8802597B2, “Herbicidal pyrimidines” (E I du Pont de Nemours and Company, priority 2003, dated 2014)
Where two headings read alike, the source gives them in different places.

How the values were obtained:
Test in all cases: Test C pre/postemergence
Type in all cases: in vivo
[1] = test system: lambsquarters (Chenopodium album); details: Chenopodium album; for pest or weed control at 62 g/ha: 62 g ai/ha; for pest or weed control at 125 g/ha: 125 g ai/ha
Procedure, shortened: (§1)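 Seeds sown and sprayed preemergence with test compound in non-phytotoxic solvent containing surfactant; postemergence sprays, same formulation, went onto plants 2 to 18 cm tall (1- to 4-leaf stage). Plants held in greenhouse 12 to 14 days, then visually rated against untreated controls on a 0–100 scale (0 no effect, 100 complete control).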

[2] = test system: morningglory (Ipomoea coccinea); details: Ipomoea; for pest or weed control at 16 g/ha: 16 g ai/ha; for pest or weed control at 31 g/ha: 31 g ai/ha; for pest or weed control at 62 g/ha: 62 g ai/ha; for pest or weed control at 125 g/ha: 125 g ai/ha
Procedure, shortened: as §1

[3] = test system: yellow nutsedge (Cyperus esculentus); details: Cyperus; for pest or weed control at 16 g/ha: 16 g ai/ha; for pest or weed control at 31 g/ha: 31 g ai/ha; for pest or weed control at 62 g/ha: 62 g ai/ha; for pest or weed control at 125 g/ha: 125 g ai/ha
Procedure, shortened: as §1

[4] = test system: woolly cupgrass (Eriochloa villosa); details: Eriochloa villosa; for pest or weed control at 16 g/ha: 16 g ai/ha; for pest or weed control at 31 g/ha: 31 g ai/ha; for pest or weed control at 62 g/ha: 62 g ai/ha; for pest or weed control at 125 g/ha: 125 g ai/ha
Procedure, shortened: as §1

[5] = test system: giant foxtail (Setaria faberii); details: Setaria faberi; for pest or weed control at 125 g/ha: 125 g ai/ha; for pest or weed control at 16 g/ha: 16 g ai/ha; for pest or weed control at 31 g/ha: 31 g ai/ha; for pest or weed control at 62 g/ha: 62 g ai/ha
Procedure, shortened: as §1

[6] = test system: velvetleaf (Abutilon theophrasti); details: Abutilon theophrasti; for pest or weed control at 16 g/ha: 16 g ai/ha; for pest or weed control at 31 g/ha: 31 g ai/ha; for pest or weed control at 62 g/ha: 62 g ai/ha; for pest or weed control at 125 g/ha: 125 g ai/ha
Procedure, shortened: as §1

[7] = post-emergence, Postemergence, scale 0 to 100 (0 no effect, 100 complete control), read-out: Lambsquarters plant response rating
[8] = post-emergence, Postemergence, read-out: Plant response rating (scale of 0 to 100), Morningglory
[9] = post-emergence, Postemergence, scale 0 to 100 (0 no effect, 100 complete control), read-out: Morningglory plant response rating
[10] = pre-emergence, Preemergence, scale 0 to 100, 0 no effect, 100 complete control, read-out: Plant response rating, Morningglory
[11] = post-emergence, Postemergence, read-out: Plant response rating (scale of 0 to 100), Nutsedge, Yellow
[12] = post-emergence, Postemergence, scale 0 to 100 (0 no effect, 100 complete control), read-out: Nutsedge, Yellow plant response rating
[13] = pre-emergence, Preemergence, scale 0 to 100, 0 no effect, 100 complete control, read-out: Plant response rating, Nutsedge, Yellow
[14] = post-emergence, Postemergence, read-out: Plant response rating (scale of 0 to 100), Cupgrass, Woolly
[15] = post-emergence, Postemergence, scale 0 to 100 (0 no effect, 100 complete control), read-out: Cupgrass, Woolly plant response rating
[16] = pre-emergence, Preemergence, scale 0 to 100, 0 no effect, 100 complete control, read-out: Plant response rating, Cupgrass, Woolly
[17] = post-emergence, Postemergence, scale 0 to 100 (0 no effect, 100 complete control), read-out: Foxtail, Giant plant response rating
[18] = post-emergence, Postemergence, read-out: Plant response rating (scale of 0 to 100), Foxtail, Giant
[19] = pre-emergence, Preemergence, scale 0 to 100, 0 no effect, 100 complete control, read-out: Plant response rating, Foxtail, Giant
[20] = post-emergence, Postemergence, read-out: Plant response rating (scale of 0 to 100), Velvetleaf
[21] = post-emergence, Postemergence, scale 0 to 100 (0 no effect, 100 complete control), read-out: Velvetleaf plant response rating
[22] = pre-emergence, Preemergence, scale 0 to 100, 0 no effect, 100 complete control, read-out: Plant response rating, Velvetleaf

In the case of COC(=O)c1nc(C2CC2)nc(N)c1F [Compound 25], the pest or weed control at 62 g/ha [1, 7] is reported as 85%, the pest or weed control at 125 g/ha [1, 7] is reported as 90% and the pest or weed control at 16 g/ha ([1]; pre-emergence, Preemergence, 16 g ai/ha, scale 0 to 100, 0 no effect, 100 complete control, read-out: Plant response rating, Lambsquarters) is reported as 0%. It also gave a pest or weed control at 31 g/ha ([1]; pre-emergence, Preemergence, 31 g ai/ha, scale 0 to 100, 0 no effect, 100 complete control, read-out: Plant response rating, Lambsquarters) of 0%, a pest or weed control at 62 g/ha ([1]; pre-emergence, Preemergence, scale 0 to 100, 0 no effect, 100 complete control, read-out: Plant response rating, Lambsquarters) of 30% and a pest or weed control at 125 g/ha ([1]; pre-emergence, Preemergence, scale 0 to 100, read-out: Plant response rating, Lambsquarters) of 50%. It also gave a pest or weed control at 16 g/ha [2, 8] of 90%, a pest or weed control at 31 g/ha [2, 8] of 90% and a pest or weed control at 62 g/ha [2, 9] of 90%. It also gave a pest or weed control at 125 g/ha [2, 9] of 90%, a pest or weed control at 16 g/ha [2, 10] of 0% and a pest or weed control at 31 g/ha [2, 10] of 0%. It also gave a pest or weed control at 62 g/ha [2, 10] of 50%, a pest or weed control at 125 g/ha ([2]; pre-emergence, Preemergence, scale 0 to 100, read-out: Plant response rating, Morningglory) of 90% and a pest or weed control at 16 g/ha [3, 11] of 0%. The pest or weed control at 31 g/ha [3, 11] was 0%, the pest or weed control at 62 g/ha [3, 12] was 0% and the pest or weed control at 125 g/ha [3, 12] was 0%. For the same compound, the pest or weed control at 16 g/ha [3, 13] was 0%, the pest or weed control at 31 g/ha [3, 13] was 0% and the pest or weed control at 62 g/ha [3, 13] was 0%. The pest or weed control at 125 g/ha ([3]; pre-emergence, Preemergence, scale 0 to 100, read-out: Plant response rating, Nutsedge, Yellow) was 0%, the pest or weed control at 16 g/ha [4, 14] was 0% and the pest or weed control at 31 g/ha [4, 14] was 0%. The pest or weed control at 62 g/ha [4, 15] was 0%, the pest or weed control at 125 g/ha [4, 15] was 30% and the pest or weed control at 16 g/ha [4, 16] was 0%. It also gave a pest or weed control at 31 g/ha [4, 16] of 0%, a pest or weed control at 62 g/ha [4, 16] of 0% and a pest or weed control at 125 g/ha ([4]; pre-emergence, Preemergence, scale 0 to 100, read-out: Plant response rating, Cupgrass, Woolly) of 50%. It also gave a pest or weed control at 125 g/ha [5, 17] of 30%, a pest or weed control at 16 g/ha [5, 18] of 0% and a pest or weed control at 31 g/ha [5, 18] of 0%. For the same compound, the pest or weed control at 62 g/ha [5, 17] was 5%, the pest or weed control at 16 g/ha [5, 19] was 0% and the pest or weed control at 31 g/ha [5, 19] was 0%. The pest or weed control at 62 g/ha [5, 19] was 0%, the pest or weed control at 125 g/ha ([5]; pre-emergence, Preemergence, scale 0 to 100, read-out: Plant response rating, Foxtail, Giant) was 0% and the pest or weed control at 16 g/ha [6, 20] was 5%. The pest or weed control at 31 g/ha [6, 20] was 20%, the pest or weed control at 62 g/ha [6, 21] was 45% and the pest or weed control at 125 g/ha [6, 21] was 45%. For the same compound, the pest or weed control at 16 g/ha [6, 22] was 0%, the pest or weed control at 31 g/ha [6, 22] was 0% and the pest or weed control at 62 g/ha [6, 22] was 0%. It also gave a pest or weed control at 125 g/ha ([6]; pre-emergence, Preemergence, scale 0 to 100, read-out: Plant response rating, Velvetleaf) of 40%.
